Measured values taken from ChEMBL document CHEMBL5620348, “3-Hydroxy-pyridin-4(1H)-ones as siderophores mediated delivery of isobavachalcone enhances antibacterial activity against pathogenic Pseudomonas aeruginosa” (Eur J Med Chem, 2023).
The source made the active and inactive calls. The calls are words filed in the database; no cut-off is given here.

Columns and labels:
Staphylococcus aureus [1] = assay: Antibacterial activity against Staphylococcus aureus ATCC 25923 assessed as inhibition of bacterial growth by measuring minimum inhibitory concentration incubated for 18 to 20 hrs in presence of M9 medium by broth microdilution assay; assay type: functional; details: time 18-20 hrs
Pseudomonas aeruginosa [2] = assay: Antibacterial activity against Pseudomonas aeruginosa ATCC27853 assessed as inhibition of bacterial growth by measuring minimum inhibitory concentration incubated for 18 to 20 hrs in presence of M9 medium by broth microdilution assay; assay type: functional; details: time 18-20 hrs
Pseudomonas aeruginosa [3] = assay: Antibacterial activity against Pseudomonas aeruginosa PAO1 assessed as inhibition of bacterial growth by measuring minimum inhibitory concentration incubated for 18 to 20 hrs in presence of M9 medium by broth microdilution assay; assay type: functional; details: time 18-20 hrs
Pseudomonas aeruginosa [4] = assay: Antibacterial activity against Pseudomonas aeruginosa PAO1 assessed as inhibition of bacterial growth incubated for 18 to 20 hrs in presence of M9 medium by broth microdilution assay; assay type: functional, organism-based
Pseudomonas aeruginosa [5] = assay: Antibacterial activity against Pseudomonas aeruginosa PAO1 assessed as inhibition of bacterial growth incubated for 18 to 20 hrs in presence of M9 and FeCl3 medium by broth microdilution assay; assay type: functional, organism-based
Pseudomonas aeruginosa [6] = assay: Antibacterial activity against Pseudomonas aeruginosa PAO1 assessed as inhibition of bacterial growth incubated for 18 to 20 hrs in presence of MH medium by broth microdilution assay; assay type: functional, organism-based
Pseudomonas aeruginosa [7] = assay: Antibacterial activity against multi-drug resistant Pseudomonas aeruginosa clinical isolate 1167 assessed as inhibition of bacterial growth by measuring minimum inhibitory concentration incubated for 18 to 20 hrs in presence of M9 medium by broth microdilution assay; assay type: functional; details: time 18-20 hrs
Pseudomonas aeruginosa [8] = assay: Antibacterial activity against multi-drug resistant Pseudomonas aeruginosa clinical isolate 1121 assessed as inhibition of bacterial growth by measuring minimum inhibitory concentration incubated for 18 to 20 hrs in presence of M9 medium by broth microdilution assay; assay type: functional; details: time 18-20 hrs
Escherichia coli = assay: Antibacterial activity against Escherichia coli ATCC 25922 assessed as inhibition of bacterial growth by measuring minimum inhibitory concentration incubated for 18 to 20 hrs in presence of M9 medium by broth microdilution assay; assay type: functional; details: time 18-20 hrs
Pseudomonas aeruginosa [9] = assay: Antibacterial activity against multi-drug resistant Pseudomonas aeruginosa clinical isolate 1129 assessed as inhibition of bacterial growth by measuring minimum inhibitory concentration incubated for 18 to 20 hrs in presence of M9 medium by broth microdilution assay; assay type: functional; details: time 18-20 hrs
Klebsiella pneumoniae = assay: Antibacterial activity against Klebsiella pneumoniae ATCC 700603 assessed as inhibition of bacterial growth by measuring minimum inhibitory concentration incubated for 18 to 20 hrs in presence of M9 medium by broth microdilution assay; assay type: functional; details: time 18-20 hrs
Pseudomonas aeruginosa [10] = assay: Antibacterial activity against Pseudomonas aeruginosa PAO1 assessed as inhibition of bacterial growth by measuring minimum inhibitory concentration incubated for 18 to 20 hrs in presence of MH medium by broth microdilution assay; assay type: functional; details: time 18-20 hrs
Pseudomonas aeruginosa [11] = assay: Antibacterial activity against Pseudomonas aeruginosa PAO1 assessed as inhibition of bacterial growth by measuring minimum inhibitory concentration incubated for 18 to 20 hrs in presence of M9 and FeCl3 medium by broth microdilution assay; assay type: functional; details: time 18-20 hrs
Pseudomonas aeruginosa [12] = assay: Antibacterial activity against multi-drug resistant Pseudomonas aeruginosa clinical isolate FB assessed as inhibition of bacterial growth by measuring minimum inhibitory concentration incubated for 18 to 20 hrs in presence of M9 medium by broth microdilution assay; assay type: functional; details: time 18-20 hrs
Staphylococcus aureus [13] = assay: Antibacterial activity against Staphylococcus aureus ATCC 25923 assessed as inhibition of bacterial growth incubated for 18 to 20 hrs in presence of M9 medium by broth microdilution assay; assay type: functional, organism-based; details: time 18-20 hrs
Vero = assay: Cytotoxicity against green monkey Vero cells assessed as reduction in cell viability at 1 to 32 ug/ml incubated for 24 hrs by MTT assay; assay type: toxicity, cell-based; details: chlorocebus sabaeus, dose 1-32 µg/ml
Pseudomonas aeruginosa [14] = assay: Antibacterial activity against Pseudomonas aeruginosa PAO1 assessed as inhibition of bacterial growth at 32 ug/ml incubated upto 24 hrs by time-kill based microplate reader assay; assay type: functional, organism-based; details: dose 32.0 µg/ml
Pseudomonas aeruginosa [15] = assay: Antibacterial activity against Pseudomonas aeruginosa PAO1 infected in Caenorhabditis elegans assessed as increase in worm survival rate at 32 ug/ml incubated for 60 hrs; assay type: functional, organism-based; details: dose 32.0 µg/ml
Staphylococcus aureus [16] = assay: Bactericidal activity against Staphylococcus aureus ATCC 25923 assessed as inhibition of bacterial growth at 2 times MIC incubated upto 24 hrs by time-kill based microplate reader assay; assay type: functional, organism-based

Row | Compound | MIC (Staphylococcus aureus [1]) [µg/mL] | MIC (Pseudomonas aeruginosa [2]) [µg/mL] | MIC (Pseudomonas aeruginosa [3]) [µg/mL] | IC50 (Pseudomonas aeruginosa [4]) [µg/mL] | IC50 (Pseudomonas aeruginosa [5]) [µg/mL] | IC50 (Pseudomonas aeruginosa [6]) [µg/mL] | MIC (Pseudomonas aeruginosa [7]) [µg/mL] | MIC (Pseudomonas aeruginosa [8]) [µg/mL] | MIC (Escherichia coli) [µg/mL] | MIC (Pseudomonas aeruginosa [9]) [µg/mL] | MIC (Klebsiella pneumoniae) [µg/mL] | MIC (Pseudomonas aeruginosa [10]) [µg/mL] | MIC (Pseudomonas aeruginosa [11]) [µg/mL] | MIC (Pseudomonas aeruginosa [12]) [µg/mL] | Activity (Staphylococcus aureus [13]) | Activity (Vero) | Activity (Pseudomonas aeruginosa [14]) | Activity (Pseudomonas aeruginosa [15]) | Activity (Staphylococcus aureus [16])
1 | CC1(C)S[C@@H]2[C@H](NC(=O)[C@H](N)c3ccccc3)C(=O)N2[C@H]1C(=O)O [AMPICILLIN] | 0.25 | > 128 | 32 | 12.7 | 6.06 | 12.6 | > 128 | > 128 | 8 | > 128 | > 128 | 32 | 32 | > 128 | – | – | – | – | –
2 | CC(C)=CCc1c(O)ccc(C(=O)/C=C/c2ccc(OCCCCCCOCc3c(O)c(=O)cc(C)n3C)cc2)c1O | > 128 | 32 | 32 | 7.87 | > 128 | 10.2 | 16 | 8 | > 128 | 8 | > 128 | > 128 | > 128 | 32 | inactive | – | – | – | –
3 | CC(C)=CCc1c(OCCCCn2cc(COCc3c(O)c(=O)cc(C)n3C)nn2)ccc(C(=O)/C=C/c2ccc(O)cc2)c1O | 32 | 32 | 32 | 3.64 | > 128 | 29.4 | 32 | 8 | > 128 | 16 | > 128 | 64 | > 128 | 16 | – | – | – | – | –
4 | CC(C)=CCc1c(OCCCCCC(=O)NCc2cc(=O)c(O)cn2C)ccc(C(=O)/C=C/c2ccc(O)cc2)c1O | 32 | 32 | 16 | 1.72 | > 128 | 19.7 | 8 | 8 | > 128 | 16 | > 128 | 32 | > 128 | 16 | – | – | – | – | –
5 | CC(C)=CCc1c(O)ccc(C(=O)/C=C/c2ccc(O)cc2)c1O [ISOBAVACHALCONE] | 4 | > 128 | > 128 | > 128 | > 128 | > 128 | > 128 | > 128 | > 128 | > 128 | > 128 | > 128 | > 128 | > 128 | – | Non-Toxic | inactive | inactive | Active
